Source: ChEMBL document CHEMBL1649564, “Anidulafungin treatment of candidal central nervous system infection in a murine model” (Antimicrob Agents Chemother, 2009)
In brackets after ≈: the same amount, converted by molar mass. Activity calls are given as the source filed them. The calls are words filed in the database; no cut-off is given here. Numbered stars: 1 amine (or outer) side, 2 acyl side, 3 side chain; on linkers, the order of the positions; unused ones are H or OH. Bridge positions count the residues as written; N and C are the ends. Square brackets hold non-standard residues; d marks the D form. Peptide text beside a SMILES is read from it. * marks the point of attachment. pTerphenylCO(4''-OnC5H11) = CCCCCOc1ccc(-c2ccc(-c3ccc(C(=O)*)cc3)cc2)cc1; Orn(4R-OH,5R-OH) = O=C([C@H](C[C@@H](O)[C@@H](O)N[*:3])N[*:1])[*:2]; hTyr(3S-OH,4S-OH) = N[C@H](C(=O)O)[C@H](O)[C@@H](O)c1ccc(O)cc1; Pro(3S-OH,4S-Me) = C[C@H]1CN[C@H](C(=O)O)[C@H]1O; Hyp = O=C(O)[C@@H]1C[C@@H](O)CN1

Legend:
[1] = Plasma concentration in mouse infected with Candida albicans at 10 mg/kg, ip after 1 hr; type: ADME, organism-based; design: dose 10 mg/kg, route intraperitoneal; details: read-out: MIC
[2] = Plasma concentration in mouse infected with Candida albicans at 5 mg/kg, ip after 3 hrs; type: ADME, organism-based; design: dose 5 mg/kg, route intraperitoneal; details: read-out: MIC
[3] = Plasma concentration in mouse infected with Candida albicans at 10 mg/kg, ip after 6 hrs; type: ADME, organism-based; design: dose 10 mg/kg, route intraperitoneal; details: read-out: MIC
[4] = Plasma concentration in mouse infected with Candida albicans at 10 mg/kg, ip after 3 hrs; type: ADME, organism-based; design: dose 10 mg/kg, route intraperitoneal; details: read-out: MIC
[5] = tested on: Candida albicans; test: Antifungal activity against Candida albicans; type: functional
[6] = Plasma concentration in mouse infected with Candida albicans at 5 mg/kg, ip after 6 hrs; type: ADME, organism-based; design: dose 5 mg/kg, route intraperitoneal; details: read-out: MIC
[7] = Plasma concentration in mouse infected with Candida albicans at 5 mg/kg, ip after 1 hr; type: ADME, organism-based; design: dose 5 mg/kg, route intraperitoneal; details: read-out: MIC
[8] = Plasma concentration in mouse infected with Candida albicans at 5 mg/kg, ip after 24 hrs; type: ADME, organism-based; design: dose 5 mg/kg, route intraperitoneal; details: read-out: MIC
[9] = tested on: Candida albicans; test: Antifungal activity against Candida albicans infected in mouse assessed as fungal load in brain at 10 mg/kg, ip after 10 days; type: functional; details: route intraperitoneal
[10] = Plasma concentration in mouse infected with Candida albicans at 10 mg/kg, ip after 24 hrs; type: ADME, organism-based; design: dose 10 mg/kg, route intraperitoneal; details: read-out: MIC
[11] = tested on: Candida albicans; test: Antifungal activity against Candida albicans infected in mouse assessed as decrease in fungal load in brain at 5 mg/kg, ip after 10 days; type: functional, organism-based; design: dose 5 mg/kg
[12] = Plasma concentration in mouse infected with Candida albicans at 10 mg/kg, ip after 12 hrs; type: ADME, organism-based; design: dose 10 mg/kg, route intraperitoneal; details: read-out: MIC
[13] = Plasma concentration in mouse infected with Candida albicans at 5 mg/kg, ip after 12 hrs; type: ADME, organism-based; design: dose 5 mg/kg, route intraperitoneal; details: read-out: MIC
[14] = tested on: Candida albicans; test: Antifungal activity against Candida albicans infected in mouse assessed as decrease in fungus-induced mortality rate at 5 mg/kg, ip; type: functional, organism-based; design: dose 5 mg/kg
[15] = Plasma concentration in mouse infected with Candida albicans at 60 mg/kg, po after 1 hr; type: ADME, organism-based; design: dose 60 mg/kg, route oral; details: read-out: MIC
[16] = tested on: Candida albicans; test: Antifungal activity against Candida albicans infected in mouse assessed as fungal load in brain at 60 mg/kg, po after 10 days; type: functional
[17] = Plasma concentration in mouse infected with Candida albicans at 60 mg/kg, po after 3 hrs; type: ADME, organism-based; design: dose 60 mg/kg, route oral; details: read-out: MIC
[18] = Plasma concentration in mouse infected with Candida albicans at 60 mg/kg, po after 12 hrs; type: ADME, organism-based; design: dose 60 mg/kg, route oral; details: read-out: MIC
[19] = tested on: Candida albicans; test: Antifungal activity against Candida albicans infected in mouse assessed as decrease in fungus-induced mortality rate at 60 mg/kg, po; type: functional, organism-based; design: dose 60 mg/kg
[20] = Plasma concentration in mouse infected with Candida albicans at 60 mg/kg, po after 24 hrs; type: ADME, organism-based; design: dose 60 mg/kg, route oral; details: read-out: MIC
[21] = Plasma concentration in mouse infected with Candida albicans at 60 mg/kg, po after 6 hrs; type: ADME, organism-based; design: dose 60 mg/kg, route oral; details: read-out: MIC
[22] = tested on: Candida albicans; test: Antifungal activity against Candida albicans infected in mouse assessed as decrease in fungus-induced mortality rate at 10 mg/kg, ip; type: functional, organism-based; design: dose 10 mg/kg

CCCCCOc1ccc(-c2ccc(-c3ccc(C(=O)N[C@H]4C[C@@H](O)[C@@H](O)NC(=O)[C@@H]5[C@@H](O)[C@@H](C)CN5C(=O)[C@H]([C@@H](C)O)NC(=O)[C@H]([C@H](O)[C@@H](O)c5ccc(O)cc5)NC(=O)[C@@H]5C[C@@H](O)CN5C(=O)[C@H]([C@@H](C)O)NC4=O)cc3)cc2)cc1 [ANIDULAFUNGIN] ({pTerphenylCO(4''-OnC5H11)}-[Orn(4R-OH,5R-OH)]T[Hyp][hTyr(3S-OH,4S-OH)]T[Pro(3S-OH,4S-Me)]; lactam 1-C)
concentration at 1 h [1]: 4020 ng/mL
concentration at 3 h [2]: 1730 ng/mL
concentration at 6 h [3]: 3180 ng/mL
concentration at 3 h [4]: 4910 ng/mL
MIC [5]: 0.03 µg/mL (≈ 0.0263 µM)
concentration at 6 h [6]: 1660 ng/mL
concentration at 1 h [7]: 2500 ng/mL
concentration at 24 h [8]: 180 ng/mL
log10CFU/g [9]: 2.65
concentration at 24 h [10]: 1390 ng/mL
inhibition [11]: inactive
concentration at 12 h [12]: 2730 ng/mL
concentration at 12 h [13]: 1180 ng/mL
inhibition [14]: inactive

C[C@@H](c1ncncc1F)[C@](O)(Cn1cncn1)c1ccc(F)cc1F [VORICONAZOLE]
concentration at 1 h [15]: 7410 ng/mL
MIC [5]: 0.06 µg/mL (≈ 0.172 µM)
log10CFU/g [16]: 3.23
concentration at 3 h [17]: 7280 ng/mL
concentration at 12 h [18]: 5370 ng/mL
inhibition [19]: Active
concentration at 24 h [20]: 160 ng/mL
concentration at 6 h [21]: 9470 ng/mL
Activity [22]: Active
